The source made the active and inactive calls. No cut-off for these calls is given here.
target: T1, Phosphatidylinositol 3,4,5-trisphosphate 5-phosphatase 1 (Homo sapiens) (UniProt Q92835); assay: Activation of SHIP1 using IP4 as substrate at 10 uM preincubated for 10 mins before addition of IP4 measured after 10 mins
T1 sequence (whole entry): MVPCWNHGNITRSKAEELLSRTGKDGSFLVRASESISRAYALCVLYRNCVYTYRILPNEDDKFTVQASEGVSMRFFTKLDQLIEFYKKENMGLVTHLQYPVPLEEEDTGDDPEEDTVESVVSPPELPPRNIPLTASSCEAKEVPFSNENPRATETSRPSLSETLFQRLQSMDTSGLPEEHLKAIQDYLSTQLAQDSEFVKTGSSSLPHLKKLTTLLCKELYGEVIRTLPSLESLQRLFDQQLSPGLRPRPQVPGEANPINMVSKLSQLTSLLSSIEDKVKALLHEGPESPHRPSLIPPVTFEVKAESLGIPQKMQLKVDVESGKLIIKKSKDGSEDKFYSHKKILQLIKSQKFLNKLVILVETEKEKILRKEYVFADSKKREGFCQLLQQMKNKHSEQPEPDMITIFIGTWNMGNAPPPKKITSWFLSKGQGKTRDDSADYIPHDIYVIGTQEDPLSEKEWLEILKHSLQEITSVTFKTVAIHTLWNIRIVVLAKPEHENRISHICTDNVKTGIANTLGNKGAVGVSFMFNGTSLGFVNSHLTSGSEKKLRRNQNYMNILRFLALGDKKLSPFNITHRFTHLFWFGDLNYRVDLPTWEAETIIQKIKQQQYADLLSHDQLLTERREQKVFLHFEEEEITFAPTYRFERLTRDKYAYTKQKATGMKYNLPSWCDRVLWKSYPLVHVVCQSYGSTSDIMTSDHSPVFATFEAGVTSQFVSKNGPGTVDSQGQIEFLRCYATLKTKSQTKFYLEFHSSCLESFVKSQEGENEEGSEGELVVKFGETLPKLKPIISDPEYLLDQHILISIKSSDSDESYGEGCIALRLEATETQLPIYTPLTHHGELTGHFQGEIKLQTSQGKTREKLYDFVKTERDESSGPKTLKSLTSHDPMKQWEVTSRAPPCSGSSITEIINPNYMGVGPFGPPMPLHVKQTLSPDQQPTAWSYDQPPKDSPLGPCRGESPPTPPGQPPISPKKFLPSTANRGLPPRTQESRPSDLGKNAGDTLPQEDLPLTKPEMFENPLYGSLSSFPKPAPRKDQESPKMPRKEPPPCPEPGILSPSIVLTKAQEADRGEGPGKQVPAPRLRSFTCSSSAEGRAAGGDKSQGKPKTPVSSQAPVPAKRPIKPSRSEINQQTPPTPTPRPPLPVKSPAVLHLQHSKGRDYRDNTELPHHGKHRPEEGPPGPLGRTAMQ

Activity | Compound
Active | CC[C@H](C)[C@@H]1NC(=O)[C@@H](C)NC(=O)[C@H](C(C)C)NC(=O)C[C@@H](/C=C/c2ccccc2)OC(=O)[C@H](C(C)C)NC1=O
Active | Cc1cc(O)cc2c1[C@]1(C)CC[C@H]3C(C)(C)CCC[C@]3(C)[C@H]1C2
inactive | CC[C@H](C)[C@@H]1NC(=O)[C@@H](C)NC(=O)[C@H](C(C)C)NC(=O)C[C@H](/C=C/c2ccccc2)OC(=O)[C@H](C(C)C)NC1=O
